The source of these data is article PMC3833056 (The Journal of organic chemistry, 2010).

Assay [1] has as its system mycobacterial α-(1,6)-mannosyltransferases. Briefly: In vitro PPM-dependent α-. It is filed as biochemical, Mycobacterium smegmatis. To be noted: inhibitor 1.0 mM; acceptor 0.2 mM; several independent experiments.
In the next assay the test system is α-(1,6)-ManTs. In words: Mannosyl acceptor. It is filed as biochemical, Mycobacterium smegmatis. As to conditions: up to 4 mM.

Take `C[C@H]1O[C@H](c2cn(C[C@H]3O[C@@H](c4cn(C[C@H]5O[C@@H](c6cn(C[C@H]7O[C@@H](c8cn(C[C@H]9O[C@@H](c%10cn(C[C@H]%11O[C@@H](c%12cn(C[C@H]%13O[C@H](c%14cn(C[C@H]%15O[C@H](CCO)[C@@H](O)[C@@H](O)[C@@H]%15O)nn%14)[C@@H](O)[C@@H](O)[C@@H]%13O)nn%12)[C@@H](O)[C@@H](O)[C@@H]%11O)nn%10)[C@@H](O)[C@@H](O)[C@@H]9O)nn8)[C@@H](O)[C@@H](O)[C@@H]7O)nn6)[C@@H](O)[C@@H](O)[C@@H]5O)nn4)[C@@H](O)[C@@H](O)[C@@H]3O)nn2)[C@@H](O)[C@@H](O)[C@@H]1O` [TOM-8]: the “inhibition of α-(1,6)-mannosyltransferase activity” value in assay [1] is “ca. 95%”.
For the compound `OCC[C@H]1O[C@H](Cn2cc([C@H]3O[C@H](CO)[C@@H](O)[C@H](O)[C@@H]3O)nn2)[C@@H](O)[C@H](O)[C@@H]1O` [compound 31, 3,7-Anhydro-2,8-dideoxy-8-[4-(α-D-mannopyranosyl)-1H-1,2,3-triazol-1-yl]-D-glycero-D-talo-octitol], in the assay on α-(1,6)-ManTs, the mannosyl acceptor activity entry is “poor mannosyl acceptor”.
Turning to `C[C@H]1O[C@H](c2cn(C[C@H]3O[C@@H](c4cn(C[C@H]5O[C@@H](c6cn(C[C@H]7O[C@@H](c8cn(C[C@H]9O[C@H](c%10cn(C[C@H]%11O[C@H](CCO)[C@@H](O)[C@@H](O)[C@@H]%11O)nn%10)[C@@H](O)[C@@H](O)[C@@H]9O)nn8)[C@@H](O)[C@@H](O)[C@@H]7O)nn6)[C@@H](O)[C@@H](O)[C@@H]5O)nn4)[C@@H](O)[C@@H](O)[C@@H]3O)nn2)[C@@H](O)[C@@H](O)[C@@H]1O` [TOM-6], the “inhibition of α-(1,6)-mannosyltransferase activity” value in assay [1] is recorded as “ca. 95%”.
